What all share (assay type): cell-based
Assay [1] concerns the target T1, Ecdysone receptor (Spodoptera littoralis, UniProt E3UJZ5).
T1 sequence (E3UJZ5 whole entry): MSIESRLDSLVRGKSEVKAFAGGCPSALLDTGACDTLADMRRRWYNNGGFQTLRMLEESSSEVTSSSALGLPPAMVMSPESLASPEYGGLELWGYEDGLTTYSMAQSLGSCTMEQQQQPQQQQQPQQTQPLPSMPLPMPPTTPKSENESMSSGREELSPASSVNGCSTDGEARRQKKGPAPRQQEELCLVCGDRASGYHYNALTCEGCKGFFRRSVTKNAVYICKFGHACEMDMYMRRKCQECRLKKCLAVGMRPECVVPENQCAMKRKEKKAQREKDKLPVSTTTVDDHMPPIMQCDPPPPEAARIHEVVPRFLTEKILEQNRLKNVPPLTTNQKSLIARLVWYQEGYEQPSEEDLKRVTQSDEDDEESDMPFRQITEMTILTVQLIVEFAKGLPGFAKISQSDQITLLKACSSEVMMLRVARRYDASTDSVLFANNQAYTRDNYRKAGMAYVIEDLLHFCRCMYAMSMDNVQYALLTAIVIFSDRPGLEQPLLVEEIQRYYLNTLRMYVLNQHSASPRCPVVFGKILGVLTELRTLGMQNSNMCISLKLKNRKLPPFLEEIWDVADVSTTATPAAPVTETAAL
Description: Agonist activity at ecdysone receptor in Spodoptera littoralis Sl2 cells after 24 hr by luciferase reporter gene assay. The settings on record: read-out: pEC50 (converted). A general note: Reporter assays use an easily measured gene product as a stand-in for the process of interest.

For assay [2], the target named is T2, Ecdysone receptor (Spodoptera littoralis) (UniProt E3UJZ5).
T2 sequence (whole entry): T1 sequence (E3UJZ5 whole entry)
Briefly: Agonist activity at ecdysone receptor in Spodoptera littoralis Sl2 cells after 24 hr by luciferase reporter gene assay relative to tebufenozide.

Assay [3] deals with T3, Ecdysone receptor (Bombyx mori, UniProt P49881).
T3 sequence (P49881 whole entry): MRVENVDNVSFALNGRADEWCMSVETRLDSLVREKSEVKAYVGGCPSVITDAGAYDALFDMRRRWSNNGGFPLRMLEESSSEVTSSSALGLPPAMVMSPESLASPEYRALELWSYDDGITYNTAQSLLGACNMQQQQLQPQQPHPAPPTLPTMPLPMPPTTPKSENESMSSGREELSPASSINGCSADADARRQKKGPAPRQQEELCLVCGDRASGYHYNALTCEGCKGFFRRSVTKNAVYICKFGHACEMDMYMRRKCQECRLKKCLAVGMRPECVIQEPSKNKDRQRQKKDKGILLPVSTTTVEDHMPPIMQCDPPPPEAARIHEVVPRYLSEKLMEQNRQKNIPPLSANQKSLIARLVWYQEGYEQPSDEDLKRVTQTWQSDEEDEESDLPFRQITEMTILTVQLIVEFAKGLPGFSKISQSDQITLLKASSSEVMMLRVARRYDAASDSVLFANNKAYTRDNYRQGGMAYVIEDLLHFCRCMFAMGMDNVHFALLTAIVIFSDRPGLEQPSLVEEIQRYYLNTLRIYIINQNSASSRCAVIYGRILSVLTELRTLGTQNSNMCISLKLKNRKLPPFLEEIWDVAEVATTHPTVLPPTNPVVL
Description: Agonist activity at ecdysone receptor in Bombyx mori Bm5 cells after 24 hr by luciferase reporter gene assay. The settings on record: read-out: pEC50 (converted).

Assay [4] deals with T4, Ecdysone receptor (Bombyx mori) (UniProt P49881).
T4 sequence (whole entry): T3 sequence (P49881 whole entry)
Description: Agonist activity at ecdysone receptor in Bombyx mori Bm5 cells after 24 hr by luciferase reporter gene assay relative to tebufenozide.

Assay [5] is described as follows: Selectivity ratio of EC50 for ecdysone receptor in Bombyx mori Bm5 cells to EC50 for ecdysone receptor in Spodoptera littoralis Sl2 cells.

As for `CCc1ccc(C(=O)NC(CC)(CC)C(=O)c2cc(C)cc(C)c2)cc1`, the EC50 is 4270 nM at Ecdysone receptor [1] and 1260 nM on Ecdysone receptor [3]. For the same compound, the Efficacy in assay [2] was determined as 96%; in assay [4], 95%. Besides, the Ratio EC50 in assay [5] amounted to 0.29.
For the compound `Cc1cc(C)c(Cl)c(C(=O)N(NC(=O)c2ccc(Cl)cc2)C(C)(C)C)c1`, the figures for the EC50 at Ecdysone receptor [1] and on Ecdysone receptor [3] were 1070 nM and 447 nM, respectively. Further, the Efficacy in assay [2] was 101%; in assay [4] it was 93%. In assay [5], the Ratio EC50 turned out to be 0.42.
In the same order, the values of `Cc1cc(C)c(Cl)c(C(=O)N(NC(=O)c2ccccc2)C(C)(C)C)c1` are 1740 nM, 1170 nM, 87%, 92% and 0.68.
In the same order, the values of `CCCc1ccc(C(=O)NN(C(=O)c2ccccc2Cl)C(C)(C)C)cc1` are 74.1 nM, 30.9 nM, 75%, 107% and 0.42.
For the compound `CC(C)(C)N(NC(=O)c1ccccc1)C(=O)c1ccccc1C(F)(F)F`, the EC50 at Ecdysone receptor [1] was 794 nM; at Ecdysone receptor [3] it was 871 nM. In addition, the Efficacy is 98% in assay [2] and 92% in assay [4]. For the same compound, the Ratio EC50 in assay [5] stood at 1.1.
Consider `CCCCCc1ccc(C(=O)NN(C(=O)c2cc(C)cc(C)c2Cl)C(C)(C)C)cc1`, for which the EC50 at Ecdysone receptor [1] is 3550 nM; on Ecdysone receptor [3], 1780 nM. The Efficacy was found to be 76% in assay [2] and 45% in assay [4]. Also, in assay [5], the Ratio EC50 came out at 0.5.
For `CCCCc1ccc(C(=O)NN(C(=O)c2ccccc2OCC)C(C)(C)C)cc1` the same measures were 7760 nM, 16200 nM, 41%, 20% and 2.09.
With `CCOc1ccccc1C(=O)N(NC(=O)c1ccc(OC)cc1)C(C)(C)C`, the values for the EC50 on Ecdysone receptor [1] and on Ecdysone receptor [3] were 21900 nM and 19100 nM, respectively. The Efficacy in assay [2] was 45%; in assay [4], 59%. Moreover, in assay [5], the Ratio EC50 worked out at 0.87.
For `CCC(CC)(NC(=O)c1ccc2c(c1C)CCCO2)C(=O)c1cc(C)cc(C)c1`, the EC50 at Ecdysone receptor [1] is 166 nM; at Ecdysone receptor [3], 191 nM. Besides, the Efficacy came to 104% in assay [2] and 113% in assay [4]. Besides, the Ratio EC50 in assay [5] amounted to 1.15.
`CCCCc1ccc(C(=O)NN(C(=O)c2cc(C)cc(C)c2Cl)C(C)(C)C)cc1`: the EC50 at Ecdysone receptor [1] was 1120 nM; at Ecdysone receptor [3], 1150 nM. Further, the Efficacy in assay [2] is 69%; in assay [4] it was 45%. In assay [5], the Ratio EC50 stood at 1.02.
With `CCCCCc1ccc(C(=O)NN(C(=O)c2ccccc2Cl)C(C)(C)C)cc1`, the EC50 is 324 nM on Ecdysone receptor [1] and 427 nM at Ecdysone receptor [3]. The Efficacy in assay [2] came out at 86%; in assay [4], 97%. Moreover, in assay [5], the Ratio EC50 was found to be 1.32.
In the same order, the values of `COc1ccc(C(=O)NN(C(=O)c2cc(C)cc(C)c2Cl)C(C)(C)C)cc1` are 2040 nM, 1230 nM, 105%, 100% and 0.6.
As for `CCOc1ccccc1C(=O)N(NC(=O)c1ccc(CC)cc1)C(C)(C)C`, the figures for the EC50 at Ecdysone receptor [1] and at Ecdysone receptor [3] were 6920 nM and 2880 nM, respectively. The figures for the Efficacy in assay [2] and in assay [4] were 89% and 92%, respectively. Also, the Ratio EC50 in assay [5] is 0.42.
Turning to `Cc1ccc(C(=O)NN(C(=O)c2cc(C)cc(C)c2Cl)C(C)(C)C)cc1`, the EC50 on Ecdysone receptor [1] is 1350 nM; at Ecdysone receptor [3] it was 302 nM. For the same compound, the Efficacy was found to be 85% in assay [2] and 108% in assay [4]. The Ratio EC50 in assay [5] is 0.22.
In the same order, the values of `Cc1ccccc1C(=O)N(NC(=O)c1cccc(F)c1)C(C)(C)C` are 457 nM, 324 nM, 120%, 92% and 0.7.

For the origin of these results see ChEMBL document CHEMBL3046747, “Assessment of species specificity of moulting accelerating compounds in Lepidoptera: comparison of activity between Bombyx mori and Spodoptera littoralis by in vitro reporter and in vivo toxicity assays” (Pest Manag Sci, 2010).
